Assay [1] relates to Plasmodium falciparum. Briefly: Antiplasmodial activity against chloroquine-resistant Plasmodium falciparum K1. The class given is functional, organism-based.
For assay [2], the system named is Plasmodium falciparum. Kind of assay: Antiplasmodial activity against chloroquine-sensitive Plasmodium falciparum NF54. In kind it is functional, organism-based.
For another assay, the system named is [Chlorella] fusca. Briefly: Antimicrobial activity against Chlorella fusca at 50 ug/filter disk. In kind it is functional, Scenedesmus fuscus.
The next assay relates to Fusarium oxysporum. Kind of assay: Antimicrobial activity against Fusarium oxysporum at 50 ug/filter disk. In kind it is functional.
The subject of another assay is Microbotryum violaceum. Kind of assay: Antimicrobial activity against […] at 50 ug/filter disk. The class given is functional.
Another assay has as its system L6. Kind of assay: Cytotoxicity against rat L6 cells. In kind it is functional.
A further assay relates to Priestia megaterium. Briefly: Antimicrobial activity against Bacillus megaterium at 50 ug/filter disk. The class given is functional.
In a further assay the test system is Trypanosoma cruzi. Briefly: Antitrypanosomal activity against Trypanosoma cruzi trypomastigotes. The class given is functional.
The test system of assay [3] is Trypanosoma brucei rhodesiense. Briefly: Antitrypanosomal activity against Trypanosoma brucei rhodesiense trypomastigotes. In kind it is functional.
Assay [4] relates to Mycobacterium tuberculosis. Briefly: Antimicrobial activity against Mycobacterium tuberculosis. In kind it is functional.
In the next assay the test system is Mycotypha microspora. Briefly: Antimicrobial activity against Mycotypha microspora at 50 ug/filter disk. In kind it is functional.
The test system of another assay is Biomphalaria glabrata. Kind of assay: Molluscicidal activity against Biomphalaria glabrata at 100 ug/ml. In kind it is functional, organism-based.
Assay [5] concerns Aspergillus pseudoglaucus. Kind of assay: Antimicrobial activity against Eurotium repens at 50 ug/filter disk. The class given is functional.
In another assay the test system is Escherichia coli. Briefly: Antimicrobial activity against Escherichia coli at 50 ug/filter disk. In kind it is functional.

Data on 7 compounds can be found in ChEMBL document CHEMBL1158720, “Ambigol C and 2,4-dichlorobenzoic acid, natural products produced by the terrestrial cyanobacterium Fischerella ambigua” (J Nat Prod, 2005).

Usually IC50 stands for the midpoint of a concentration-inhibition curve. High values mean weaker potency in that assay, low ones greater potency in that assay.

≈ marks a conversion by molar mass, not a printed value. Calls of active or inactive are those of the source. The rule behind the calls is not given here. A value given as a limit tells only on which side of the number the result lay.

In the case of `Oc1c(Cl)cc(Cl)cc1-c1c(Cl)cc(Cl)c(Oc2ccc(Cl)cc2Cl)c1O` [AMBIGOL A], the 50% inhibitory concentration (IC50) in the assay with Plasmodium falciparum [1] was 0.846 µg/mL (≈ 1.74 µM); with Plasmodium falciparum [2], 1.62 µg/mL (≈ 3.35 µM). For the same compound, the “inhibition zone (IZ)” value is 3 mm in assay [Chlorella] fusca; 8 mm in the assay with Fusarium oxysporum; 7 mm with Microbotryum violaceum; 8 mm with Priestia megaterium; 4 mm in the assay on Mycotypha microspora; 7 mm in assay [5]. The MIC in the assay on L6 amounted to 33 µg/mL (≈ 68 µM); in the assay on Trypanosoma cruzi it was 33 µg/mL (≈ 68 µM); in assay [3] it was 33 µg/mL (≈ 68 µM); in [4], 64 µg/mL (≈ 132 µM). For the same compound, in the assay on Biomphalaria glabrata, the result was Active. In the assay with Escherichia coli, the result was inactive.

Turning to `Clc1ccc(COC(Cn2ccnc2)c2ccc(Cl)cc2Cl)c(Cl)c1` (configuration not stated) [MICONAZOLE], the “inhibition zone (IZ)” value (in [Chlorella] fusca; in the assay with Fusarium oxysporum; in the assay with Microbotryum violaceum; in the assay with Priestia megaterium; in the assay on Mycotypha microspora; in assay [5]) was 20 mm in each case. Further, in the assay on Escherichia coli, the “inhibition zone (IZ)” value amounted to 20 mm.

For `Oc1c(Cl)c(Oc2ccc(Cl)cc2Cl)cc(Oc2ccc(Cl)cc2Cl)c1Cl` [AMBIGOL C], the IC50 was determined as 1.54 µg/mL (≈ 3.17 µM) in the assay with Plasmodium falciparum [1] and 2.5 µg/mL (≈ 5.15 µM) in the assay with Plasmodium falciparum [2]. The result (in assay [Chlorella] fusca (Scenedesmus fuscus); with Fusarium oxysporum; with Mycotypha microspora; in the assay on Biomphalaria glabrata; in [5]; in the assay with Escherichia coli) was inactive. Also, the “inhibition zone (IZ)” value is given as 5 mm with Microbotryum violaceum and 7 mm in the assay with Priestia megaterium. Further, the MIC in the assay with L6 was 100 µg/mL (≈ 206 µM); with Trypanosoma cruzi it was 100 µg/mL (≈ 206 µM); in assay [3], 11 µg/mL (≈ 22.7 µM); in assay [4], greater than 128 µg/mL.

Turning to `C[C@@H]1CC[C@H]2[C@@H](C)C(=O)O[C@@H]3O[C@@]4(C)CC[C@@H]1[C@]32OO4` [ARTEMISININ], the IC50 amounted to 0.001 µg/mL (≈ 0.00354 µM) in the assay with Plasmodium falciparum [1] and 0.003 µg/mL (≈ 0.0106 µM) with Plasmodium falciparum [2].

Regarding `Nc1nc(N)nc(Nc2ccc([As]3SCC(CO)S3)cc2)n1` (configuration not stated) [MELARSOPROL], the MIC (against Trypanosoma cruzi; in assay [3]) was 0.011 µg/mL throughout.

In [4], `CO[C@H]1/C=C/O[C@@]2(C)Oc3c(C)c(O)c4c(O)c(c(/C=N/N5CCN(C)CC5)c(O)c4c3C2=O)NC(=O)/C(C)=C\C=C\[C@H](C)[C@H](O)[C@@H](C)[C@@H](O)[C@@H](C)[C@H](OC(C)=O)[C@@H]1C` [RIFAMPIN] registered an MIC of 0.125 µg/mL (≈ 0.152 µM).

For the compound `CN[C@@H]1[C@H](O[C@H]2[C@H](O[C@H]3[C@H](O)[C@@H](O)[C@H](N=C(N)N)[C@@H](O)[C@@H]3N=C(N)N)O[C@@H](C)[C@]2(O)C=O)O[C@@H](CO)[C@H](O)[C@H]1O.CN[C@@H]1[C@H](O[C@H]2[C@H](O[C@H]3[C@H](O)[C@@H](O)[C@H](N=C(N)N)[C@@H](O)[C@@H]3N=C(N)N)O[C@@H](C)[C@]2(O)C=O)O[C@@H](CO)[C@H](O)[C@H]1O.O=S(=O)(O)O.O=S(=O)(O)O.O=S(=O)(O)O` [STREPTOMYCIN SULFATE], the “inhibition zone (IZ)” value (in assay [Chlorella] fusca; with Fusarium oxysporum; in the assay with Microbotryum violaceum; in the assay with Priestia megaterium; with Mycotypha microspora; in [5]) was 4 mm in each case. In addition, the “inhibition zone (IZ)” value in the assay with Escherichia coli was found to be 4 mm.
